This is an account of results in US8277815B2, “Pharmaceutical composition comprising an antigen” (Intercell AG, priority 1999, dated 2012).

The subject of assay [1] is tick-born encephalitis (TBE) virus. Conditions: in vivo; cited from earlier work.
Another assay deals with antigen specific T cells. In words: IFN-γ-ELISPOT of lymph node lymphocytes 10 days after subcutaneous vaccination. The format is in vivo, C57BL/6 mice. Conditions: lymph node lymphocytes of TRP-2 vaccinated mice; negative control with the same MHC restriction. The procedure: Experimental Groups (5 Mice Each) • 1) TRP-2 peptide • 2) TRP-2 peptide+HGH • 3) TRP-2 peptide+pR 60 • 4) TRP-2 peptide+pR 60+HGH
On day 0 mice were injected subcutaneously with a total volume of 100 μl containing the above mentioned compounds. Animals were sacrificed 10 days after injection of the vaccine and mesenteric and inguinal lymph nodes harvested. Results are illustrated in FIG. 1.
Lymphocytes were prepared from lymph nodes as follows: cells were passed through a 70 μm sieve and washed twice with DMEM medium (GIBCO BRL) containing 2.5% fetal calf serum (FCS; SIGMA chemicals). Cells were adjusted to 10^7 cells/ml in complete medium (DMEM+10% FCS). IFN-γ-ELISPOT assays were carried out in triplicate as described (Miyahira et al., 1995). This method is a widely used procedure allowing the quantification of antigen-specific T cells. Lymphocytes were restimulated with TRP-2 peptide or with an ovalbumin-derived peptide (SIINFEKL) with the same MHC restriction serving as negative control.
Spots representing single T cells specific for the peptide used for re-stimulation (and immunization) were counted. The number of background spots observed with cells incubated without peptide(s) was subtracted from all samples.

As for “HGH: Human growth hormone, pituitary-derived factor; SAIZEN, Laboratoires Serono used in Example 1”, the “vaccine efficacy / protection of animals” value in assay [1] is “potentiated vaccine efficacy and led to the protection of animals after only one injection of the vaccine”.

Consider SIINFEKL [ovalbumine derived peptide], for which the “spots on restimulation with the ovalbumin-derived control peptide (IFN-γ-ELISPOT)” value with antigen specific T cells is “no spots detected”.
